{"source": "patent US9663899B2", "about": "“Method for making lignocellulosic paper and paper product” (Solenis Technologies, L.P., priority 2015, dated 2017)", "tested_on": "Laccase NS51003", "experiment": "ABTS laccase assay for relative laccase activity", "format": "biochemical, Aspergillus", "experimental": "One unit of activity is equal to the micromole of the oxidized product from ABTS per min per mg protein at pH 4.0 to 6.0 at 23° C. in an acetate buffer. […] A diluted enzyme solution (1.5 milliliter (ml)) was added to a mixture of 1.5 ml ABTS (0.5 millimole (mM)) solution and 1.5 ml of sodium acetate buffer (1 mM) to initiate the oxidization reaction. After mixing, incubation was conducted at 23° C., while the change in absorbance per minute was measured at 420 nm. Two Aspergillus laccases were used both from Novozymes (Bagsvaerd, Denmark), to compare with the enzyme compositions. […] NS51002 alone worked best at pH 4-5 while NS51003 worked best at pH 5-6. The ABTS laccase assay was used to evaluate the effects of cationic fixative polymer, lipase and the laccase activator of the dry strength compositions on laccase activity. The same amount of laccase active in each composition was used in the assay. In Table III, the relative activity numbers were determined by normalizing the values based on that of laccase alone at 100%.", "data": [{"smiles": "O=S(=O)([O-])[O-].[Cu+2]", "note": "[copper sulfate]", "values": [{"measurement": "effect on laccase activity", "setting": "copper level 0.5 wt. %", "value": "lost some of its original activity"}, {"measurement": "effect on laccase activity", "setting": "copper sulfate in the composition", "value": "not significant"}, {"measurement": "effect on laccase activity", "setting": "dosage of copper sulfate higher than 0.5%", "value": "negatively affected"}]}]}
